In patent US10239843B2 (CANCER RESEARCH TECHNOLOGY LIMITED, priority 2014, dated 2019):
pIC50: −log10 of the molar value. Where two headings read alike, the source gives them in different places.

Columns and labels:
[1] = test system: PARG in HeLa cell line; assay: PARG cell assay (PAR chain immunofluorescence after MMS); type: cell-based; conditions: HeLa cells
Procedure, shortened: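 HeLa cells were dosed with compound for 1 h, then given MMS at 50 μg/mL final for a further hour. Cells were methanol-fixed, permeabilised and stained overnight at 4° C with anti-PAR monoclonal antibody. Retained nuclear PAR chains, detected by indirect immunofluorescence, indicate PARG inhibition.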

[2] = biological target: Human Full Length PARG (Homo sapiens (Human), UniProt Q86W56); assay: PARG enzyme assay (TR-FRET); type: biochemical
[3] = Homo sapiens, MMS treatment, read-out: PARG Cell IC50
[4] = Homo sapiens, MMS 50 μg/mL, read-out: PARG Cell IC50 Geomean
[5] = read-out: PARG Biochem IC50 Geomean
[6] = MMS treatment, read-out: PARG Cell IC50

Human Full Length PARG, sequence (Q86W56 whole entry): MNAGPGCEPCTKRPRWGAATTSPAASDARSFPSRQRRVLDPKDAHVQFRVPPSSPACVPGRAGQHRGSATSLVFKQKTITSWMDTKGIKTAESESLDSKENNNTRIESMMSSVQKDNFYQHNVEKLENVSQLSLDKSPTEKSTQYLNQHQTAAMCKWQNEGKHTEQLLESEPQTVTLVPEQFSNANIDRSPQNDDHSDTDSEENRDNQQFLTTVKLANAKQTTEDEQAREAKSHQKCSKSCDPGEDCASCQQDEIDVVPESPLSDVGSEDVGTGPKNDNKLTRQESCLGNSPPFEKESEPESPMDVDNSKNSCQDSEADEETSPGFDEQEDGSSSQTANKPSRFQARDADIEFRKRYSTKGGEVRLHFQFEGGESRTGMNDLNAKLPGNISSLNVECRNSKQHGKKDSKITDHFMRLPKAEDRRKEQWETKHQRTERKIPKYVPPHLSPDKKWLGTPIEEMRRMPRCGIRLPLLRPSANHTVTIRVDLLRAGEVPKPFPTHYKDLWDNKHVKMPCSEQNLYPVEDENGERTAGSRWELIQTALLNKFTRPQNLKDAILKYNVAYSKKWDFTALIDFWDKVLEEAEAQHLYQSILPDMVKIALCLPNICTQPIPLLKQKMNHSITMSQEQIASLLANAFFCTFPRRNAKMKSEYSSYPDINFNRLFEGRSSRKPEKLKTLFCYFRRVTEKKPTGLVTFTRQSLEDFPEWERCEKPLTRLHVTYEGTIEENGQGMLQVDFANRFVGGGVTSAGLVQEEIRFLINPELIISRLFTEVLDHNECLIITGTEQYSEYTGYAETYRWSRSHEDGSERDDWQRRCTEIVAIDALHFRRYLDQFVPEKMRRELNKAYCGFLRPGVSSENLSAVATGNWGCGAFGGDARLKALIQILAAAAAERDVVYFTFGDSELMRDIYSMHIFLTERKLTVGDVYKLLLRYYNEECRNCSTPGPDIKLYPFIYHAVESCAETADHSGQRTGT

SMILES	pIC50 [1, 3]	pIC50 ([2]; read-out: PARG Biochem IC50)	pIC50 [1, 4]	pIC50 [2, 5]	pIC50 [1, 6]
Cc1ccnc(Cn2c(=O)n(Cc3cnn(C)c3)c(=O)c3cc(S(=O)(=O)NC4(CF)CC4)ccc32)c1 [Example 571, N-[1-(Fluoromethyl)cyclopropyl]-3-[(1-methylpyrazol-4-yl)methyl]-1-[(4-methyl-2-pyridyl)methyl]-2,4-dioxo-quinazoline-6-sulfonamide]	6.43	6.48	–	–	–
Cc1n[nH]c(Cn2c(=O)n(Cc3cnn(C)c3)c(=O)c3cc(S(=O)(=O)NC4(CF)CC4)ccc32)n1 [Example 592, N-[1-(Fluoromethyl)cyclopropyl]-3-[(1-methylpyrazol-4-yl)methyl]-1-[(3-methyl-1H-1,2,4-triazol-5-yl)methyl]-2,4-dioxo-quinazoline-6-sulfonamide]	4.94	6.52	–	–	–
Cc1cc(Cn2c(=O)c3cc(S(=O)(=O)NC4(CF)CC4)ccc3n(Cc3nnc(C)s3)c2=O)on1 [Example 552, N-[1-(Fluoromethyl)cyclopropyl]-3-[(3-methylisoxazol-5-yl)methyl]-1-[(5-methyl-1,3,4-thiadiazol-2-yl)methyl]-2,4-dioxo-quinazoline-6-sulfonamide]	6.80	6.76	–	–	–
Cn1cc(Cn2c(=O)c3cc(S(=O)(=O)NC4(C#N)CC4)ccc3n(Cc3cnn(C)c3)c2=O)cn1 [Example 378]	–	–	5.71	7.36	–
Cc1ncc(Cn2c(=O)c3cc(S(=O)(=O)NC4(CF)CC4)ccc3n(C)c2=O)s1 [Example 533, N-[1-(Fluoromethyl)cyclopropyl]-1-methyl-3-[(2-methylthiazol-5-yl)methyl]-2,4-dioxo-quinazoline-6-sulfonamide]	6.55	6.54	–	–	–
Cn1c(=O)n(Cc2ccnnc2)c(=O)c2cc(S(=O)(=O)NC3(C)CC3)ccc21 [Example 446, 1-Methyl-N-(1-methylcyclopropyl)-2,4-dioxo-3-(pyridazin-4-ylmethyl)quinazoline-6-sulfonamide]	4.72	4.87	–	–	–
CCn1c(=O)n(Cc2cc(C)no2)c(=O)c2cc(S(=O)(=O)NC3(C)CC3)ccc21 [Example 304]	–	–	6.95	6.48	–
C#CC1(NS(=O)(=O)c2ccc3[nH]c(=O)n(Cc4cnn(C)c4)c(=O)c3c2)CC1 [Example 431, N-(1-Ethynylcyclopropyl)-3-[(1-methylpyrazol-4-yl)methyl]-2,4-dioxo-1H-quinazoline-6-sulfonamide]	–	5.43	–	–	5.52
Cc1cc(Cn2c(=O)c3cc(S(=O)(=O)NC4(C)CC4)ccc3n(CC3(CO)COC3)c2=O)on1 [Example 340]	–	–	5.46	6.41	–
Cc1cc(Cn2c(=O)n(Cc3cnn(C)c3)c(=O)c3cc(S(=O)(=O)NC4(CF)CC4)ccc32)sn1 [Example 591, N-[1-(Fluoromethyl)cyclopropyl]-1-[(3-methylisothiazol-5-yl)methyl]-3-[(1-methylpyrazol-4-yl)methyl]-2,4-dioxo-quinazoline-6-sulfonamide]	7.49	7.52	–	–	–
Cc1nc(Cn2c(=O)n(Cc3cnn(C)c3)c(=O)c3cc(S(=O)(=O)NC4(CF)CC4)ccc32)cs1 [Example 582, N-[1-(Fluoromethyl)cyclopropyl]-3-[(1-methylpyrazol-4-yl)methyl]-1-[(2-methylthiazol-4-yl)methyl]-2,4-dioxo-quinazoline-6-sulfonamide]	7.14	6.80	–	–	–
Cn1ncc(Cn2c(=O)c3cc(S(=O)(=O)NC4(CF)CC4)ccc3n(C)c2=O)n1 [Example 626, N-[1-(Fluoromethyl)cyclopropyl]-1-methyl-3-[(2-methyltriazol-4-yl)methyl]-2,4-dioxo-quinazoline-6-sulfonamide]	–	5.50	–	–	5.74
Cn1cc(Cn2c(=O)c3cc(S(=O)(=O)NC4(CF)CC4)ccc3n(Cc3cncs3)c2=O)cn1 [Example 563, N-[1-(Fluoromethyl)cyclopropyl]-3-[(1-methylpyrazol-4-yl)methyl]-2,4-dioxo-1-(thiazol-5-ylmethyl)quinazoline-6-sulfonamide]	7.18	8.10	–	–	–
Cn1c(=O)n(CC(=O)N2CCCC2)c(=O)c2cc(S(=O)(=O)NC3(C)CC3)ccc21 [Example 475, 1-Methyl-N-(1-methylcyclopropyl)-2,4-dioxo-3-(2-oxo-2-pyrrolidin-1-yl-ethyl)quinazoline-6-sulfonamide]	5.93	5.21	–	–	–
Cc1cc(Cn2c(=O)n(Cc3nnc(C)s3)c(=O)c3cc(S(=O)(=O)NC4(C)CC4)ccc32)n(C)n1 [Example 615, 1-[(2,5-Dimethylpyrazol-3-yl)methyl]-N-(1-methylcyclopropyl)-3-[(5-methyl-1,3,4-thiadiazol-2-yl)methyl]-2,4-dioxo-quinazoline-6-sulfonamide]	6.56	7.19	–	–	–
CCn1c(=O)n(Cc2cnc(C)s2)c(=O)c2cc(S(=O)(=O)NC3(C#N)CC3)ccc21 [Example 455, N-(1-Cyanocyclopropyl)-1-ethyl-3-[(2-methylthiazol-5-yl)methyl]-2,4-dioxo-quinazoline-6-sulfonamide]	6.55	6.75	–	–	–
Cn1cc(Cn2c(=O)c3cc(S(=O)(=O)NC4(CF)CC4)ccc3n(Cc3cscn3)c2=O)cn1 [Example 581, N-[1-(Fluoromethyl)cyclopropyl]-3-[(1-methylpyrazol-4-yl)methyl]-2,4-dioxo-1-(thiazol-4-ylmethyl)quinazoline-6-sulfonamide]	–	7.24	–	–	7.26
Cc1cncc(Cn2c(=O)n(Cc3cnn(C)c3)c(=O)c3cc(S(=O)(=O)NC4(CF)CC4)ccc32)c1 [Example 539, N-[1-(Fluoromethyl)cyclopropyl]-3-[(1-methylpyrazol-4-yl)methyl]-1-[(5-methyl-3-pyridyl)methyl]-2,4-dioxo-quinazoline-6-sulfonamide]	6.73	7.14	–	–	–
Cn1cc(Cn2c(=O)[nH]c3c(C(N)=O)cc(S(=O)(=O)NC4(C)CC4)cc3c2=O)cn1 [Example 424, 6-[(1-Methylcyclopropyl)sulfamoyl]-3-[(1-methylpyrazol-4-yl)methyl]-2,4-dioxo-1H-quinazoline-8-carboxamide]	4.89	6.65	–	–	–
Cn1cc(Cn2c(=O)c3cc(S(=O)(=O)NC4(C)CC4)ccc3n(CC3CCCO3)c2=O)cn1 (stereo not drawn) [Example 258]	–	–	6.88	6.77	–
Cc1cc(Cn2c(=O)n(Cc3cnn(C)c3)c(=O)c3cc(S(=O)(=O)NC4(CF)CC4)ccc32)on1 [Example 441, N-[1-(Fluoromethyl)cyclopropyl]-1-[(3-methylisoxazol-5-yl)methyl]-3-[(1-methylpyrazol-4-yl)methyl]-2,4-dioxo-quinazoline-6-sulfonamide]	–	7.62	–	–	7.13
Cc1cc(Cn2c(=O)c3cc(S(=O)(=O)NC4(C)CC4)ccc3n(Cc3nc(C)no3)c2=O)on1 [Example 252]	–	–	6.53	6.41	–
Cn1cc(Cn2c(=O)[nH]c3cc(F)c(S(=O)(=O)NC4(C#N)CC4)cc3c2=O)cn1 [Example 387, N-(1-Cyanocyclopropyl)-7-fluoro-3-[(1-methylpyrazol-4-yl)methyl]-2,4-dioxo-1H-quinazoline-6-sulfonamide]	–	–	5.82	6.34	–
CC(C)=CCn1c(=O)n(Cc2cnn(C)c2)c(=O)c2cc(S(=O)(=O)NC3(CF)CC3)ccc21 [Example 609, N-[1-(Fluoromethyl)cyclopropyl]-1-(3-methylbut-2-enyl)-3-[(1-methylpyrazol-4-yl)methyl]-2,4-dioxo-quinazoline-6-sulfonamide]	7.25	7.29	–	–	–
